Data reported in patent US8518923B2, “Treatment or prevention of hypertensive disorders of pregnancy or fetal growth retardation” (Pantarhei Bioscience B.V., priority 2007, dated 2013).

Legend:
Myometrial arteries = test: Ex-vivo relaxation response in myometrial arteries on pressure myograph; design: species or system human; settings: for relaxation in myometrial arteries: arteries from normal pregnant women, pressure myograph, concentration response (FIG. 1)
Text: (§1) To evaluate acute dilatory responses to estetrol in human vasculature ex-vivo, the following study has been conducted. Myometrial arteries and subcutaneous arteries (diameter: 220 μm; length: 2-3 mm) were dissected from normal pregnant women undergoing planned caesarian section. Myometrial arteries are present in the uterus and are branches from the arteria uterina. Cigarette smokers and women with hypertension, diabetes mellitus, clinical manifestations of arteriosclerosis (CHD, peripheral artery disease, cerebrovascular disease), venous thromboembolic disease, liver disorders, unexplained vaginal bleeding, and personal or family history of breast cancer were excluded. None had received HRT, other steroid hormones, or any medication known to affect lipoprotein metabolism or blood pressure. The dissected arteries were mounted on a pressure myograph (LSI, USA). The organ bath was perfused (7 ml/min) with PSS (mM: NaCl 119, KCl 4.7, CaCl2 2.5, MgSO4 1.17, NaHCO3 25, KH2PO4 1.18, EDTA 0.026 and glucose 5.5; pH 7.4, 37° C., gassed with 5% CO2 in O2). […] FIG. 1 depicts the response curve of estetrol and PPT in the myometrial arteries. The number of subjects is mentioned in parenthesis.

subcutaneous arteries = test: Ex-vivo relaxation response in subcutaneous arteries on pressure myograph; design: species or system human; settings: arteries from normal pregnant women, concentration response (FIG. 2)
Text: as §1, with “FIG. 2” for “FIG. 1”, “the subcutaneous” for “the myometrial”, “arteries. Again, the” for “arteries. The”

In the case of `CCCc1c(-c2ccc(O)cc2)nn(-c2ccc(O)cc2)c1-c1ccc(O)cc1` [PPT, [1H]-pyrazole-1,3,5-tri-trisphenol, reference compound], the “relaxation in myometrial arteries” value (Myometrial arteries) is reported as “capable of inducing relaxation” and the “relaxation in subcutaneous arteries” value (subcutaneous arteries) is reported as “capable of inducing relaxation”.
`C[C@]12CC[C@@H]3c4ccc(O)cc4CC[C@H]3[C@@H]1[C@@H](O)[C@@H](O)[C@@H]2O` [estetrol, 1,3,5 (10)-estratrien-3,15α,16α,17β-tetrol] was tested, and the “relaxation in myometrial arteries” value (Myometrial arteries) was “capable of inducing relaxation”, the “selective effect: relaxation in myometrial arteries compared to subcutaneous arteries” value (Myometrial arteries; comparison of FIGS. 1 and 2) was “more pronounced in the myometrial arteries compared to the subcutaneous arteries” and the “relaxation in subcutaneous arteries” value (subcutaneous arteries) was “capable of inducing relaxation”.
